The values that follow are results of earlier work, collected in patent US20080031860A1 (N.V. NUTRICIA, priority 2003, published 2008).

The conditions of data set [1]: after 4 weeks of therapy.
For data set [2] the following is noted: intake of 10-20 mg per day.

Take `CCCCCc1cc(O)c2c(c1)OC(C)(C)[C@@H]1CCC(C)=C[C@@H]21` [dronabinol]: the appetite entry in data set [1] is listed as “significantly stimulates appetite”.

On to calcium D-pantothenate, for which the reported adverse effect entry in data set [2] was “diarrhea”.
